Reference: ChEMBL document CHEMBL2331128, “Nebulosides A-B, novel triterpene saponins from under-ground parts of Gypsophila arrostii Guss. var. nebulosa” (Bioorg Med Chem, 2013)
The source made the active and inactive calls. No cut-off for these calls is given here.

How the values were obtained:
[1] = system: ECV-304; assay: Cytotoxicity against human ECV304 cells at 15 ug/ml after 72 hrs by XTT reduction assay; type: cell-based; conditions: ecv-304, 72 h
[2] = system: ECV-304; assay: Induction of type I ribosome-inactivating protein-mediated cytotoxicity of human ECV304 cells measured at 15 ug/ml after 72 hrs by XTT reduction assay; type: functional, cell-based

| SMILES | Activity [1] | Activity [2] |
| --- | --- | --- |
| C[C@@H]1O[C@@H](O[C@H]2[C@H](OC(=O)[C@]34CCC(C)(C)C[C@H]3C3=CC[C@@H]5[C@@]6(C)CC[C@H](O[C@@H]7O[C@H](C(=O)O)[C@@H](O)[C@H](O[C@@H]8OC[C@@H](O)[C@H](O)[C@H]8O)[C@H]7O[C@@H]7O[C@H](CO)[C@H](O)[C@H](O)[C@H]7O)[C@@](C)(C=O)[C@@H]6CC[C@@]5(C)[C@]3(C)C[C@H]4O)O[C@H](C)[C@@H](O)[C@@H]2O)[C@H](O)[C@H](O[C@@H]2O[C@H](CO)[C@@H](O)[C@H](O)[C@H]2O)[C@H]1O[C@@H]1OC[C@@H](O)[C@H](O[C@@H]2OC[C@@H](O)[C@H](O)[C@H]2O)[C@H]1O | Non-toxic | Active |
| C[C@@H]1O[C@@H](O[C@H]2[C@H](OC(=O)[C@]34CCC(C)(C)C[C@H]3C3=CC[C@@H]5[C@@]6(C)CC[C@H](O[C@@H]7O[C@H](C(=O)O)[C@@H](O)[C@H](O[C@@H]8OC[C@@H](O)[C@H](O)[C@H]8O)[C@H]7O[C@@H]7O[C@H](CO)[C@H](O)[C@H](O)[C@H]7O[C@@H]7O[C@H](CO)[C@H](O)[C@H](O)[C@H]7O)[C@@](C)(C=O)[C@@H]6CC[C@@]5(C)[C@]3(C)CC4)O[C@H](C)[C@@H](O)[C@@H]2O)[C@H](O)[C@H](O[C@@H]2O[C@H](CO)[C@@H](O)[C@H](O)[C@H]2O)[C@H]1O[C@@H]1OC[C@@H](O)[C@H](O[C@@H]2OC[C@@H](O)[C@H](O)[C@H]2O)[C@H]1O | Non-toxic | Active |
